In patent publication US10807994B2, “Heterocyclic compounds and uses thereof” (NUVATION BIO INC., priority 2017, dated 2020) one finds IC50 data, which are given here for 43 compounds.

Broadly, the IC50 is the concentration that gives 50% inhibition.

Bounds are passed on as bounds.

The target of one test is WEE1 kinase enzyme (Homo sapiens (Human), UniProt P30291). In words: WEE1 IC50 determination, LanthaScreen Terbium labeled TR-FRET kinase assay. It is filed as biochemical. The note with it: WEE1 enzyme 1 nM. As for the experimental part:
IC50 values of compounds against WEE1 kinase enzyme were determined by LanthaScreen™ Terbium Labeled TR-FRET assay. Kinase assays were performed in 1× kinase buffer (# PV6135, Invitrogen, Life Technologies Grand Island, N.Y.) where total reaction volume was 10 μl in low-volume 384-well plates (#4511, Corning). Serially diluted compounds (3-fold) were incubated with WEE1 Enzyme (1 nM) (# PR7373A, Invitrogen, Life Technologies Grand Island, N.Y.) for 10 min, following which a mixture of ATP […] (# A1852, Sigma, St-Louis, Mo.) and fluorescent-PolyGT substrate (200 nM) (# PV3610, Invitrogen, Life Technologies Grand Island, N.Y.) was added and incubated in dark at room temperature for 1 h. After 1 h, 10 μl stop solution containing Terbium labeled antibody (4 nM) (# PV3529, Invitrogen, Life Technologies Grand Island, N.Y.) and EDTA (# E5134, Sigma, St-Louis, Mo.) (20 mM) in TR-FRET dilution buffer (# PV3574, Invitrogen, Life Technologies Grand Island, N.Y.) was added. Readings were taken in a Synergy Neo Plate reader (BioTek, Winooski) at single excitation of 340 nm and Dual emission at 495 nm and 520 nm respectively.
The % activity of test samples was calculated as (Sample−Min)*100/(Max−Min). [Max: DMSO control, complete reaction with enzyme & DMSO and Min: No enzyme & DMSO]. Percent inhibition (100-% activity) was fitted to the “four-parameter logistic model” in XLfit for determination of IC50 values.

Another test relates to A427 cells. In words: Cytotoxicity assay (resazurin), A427 cells, 72 hr. The class given is cell-based. The note with it: Homo sapiens, A-427, read-out: Cell Viability A427 IC50. Here is the method: A549 (CCL-185; ATCC) and A427 (HTB-53; ATCC), both lung epithelial cell lines were seeded in their respective medium (DMEM/MEM, 10569044/41090101; Gibco) at a cell count of 1500 cells per 100 μL per well in a 96 well edge plate (167425; ThermoFisher). Cells were allowed to grow at 37° C. for 24 hr in 5% CO2 environment (culture conditions) in a Nuaire incubator (humidified). Serially diluted test compounds (100 μL) within the desired testing concentration ranges were added to the culture plate were further incubated in culture conditions for 72 hr and 96 hr for A427 and A549 respectively. The experiment was terminated at the designated incubation time by replacing the medium with 100 μL of 1 mM of resazurin (R7017; Sigma) prepared in respective culture medium, and the plates were further incubated in culture conditions for 4-6 hr. Fluorescence was recorded using a multimodal plate reader (Biotek Synergy Neo) at an excitation wavelength of 535 nm and emission wavelength of 590 nm to obtain relative fluorescence units. Data analysis was done by subtracting the background fluorescence (only medium blank) value from each reading and then normalizing with the vehicle control (DMSO treated cells) to obtain percent survival/proliferation. Percent survival was then subtracted by 100 to get the percent inhibition of proliferation which was used to calculate IC50 values. Potency of compounds in other cell lines (As-Pc-1, Panc-10.05, MDAMB231, A172) was determined in an analogous manner.
On the technique in general: The colour change of resazurin is a common sign of viable cells or microbes.

Sequence of WEE1 kinase enzyme (P30291 whole entry): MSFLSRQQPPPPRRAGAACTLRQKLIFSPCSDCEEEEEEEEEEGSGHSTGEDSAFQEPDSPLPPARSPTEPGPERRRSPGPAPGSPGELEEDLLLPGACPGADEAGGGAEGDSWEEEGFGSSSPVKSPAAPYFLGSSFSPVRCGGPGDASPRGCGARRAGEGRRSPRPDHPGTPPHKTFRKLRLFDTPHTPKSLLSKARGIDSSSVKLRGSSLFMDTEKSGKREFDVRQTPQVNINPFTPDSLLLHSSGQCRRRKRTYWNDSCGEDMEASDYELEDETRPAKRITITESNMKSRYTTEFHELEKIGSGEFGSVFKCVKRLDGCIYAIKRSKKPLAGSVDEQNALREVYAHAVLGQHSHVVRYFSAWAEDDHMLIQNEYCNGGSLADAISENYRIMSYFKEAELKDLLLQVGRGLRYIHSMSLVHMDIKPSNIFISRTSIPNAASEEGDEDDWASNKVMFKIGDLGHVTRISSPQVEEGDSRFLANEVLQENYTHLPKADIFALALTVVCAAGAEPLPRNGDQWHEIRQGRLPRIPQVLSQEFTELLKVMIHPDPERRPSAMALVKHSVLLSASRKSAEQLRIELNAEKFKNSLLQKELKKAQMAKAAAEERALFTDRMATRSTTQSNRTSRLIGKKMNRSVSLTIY

On to `O=C1c2cnc(Nc3ccc(N4CCOCC4)cc3)nc2OCN1c1c(Cl)cccc1Cl` [Example 1.2], for which, on WEE1 kinase enzyme, the IC50 came to 3.26 µM. For `CC(C)(O)C(=O)N1Cc2cc(Nc3ncc4c(n3)OCN(c3c(Cl)cccc3Cl)C4=O)ccc2C(C)(C)C1` [Example 1.6], the IC50 at WEE1 kinase enzyme is 0.279 µM.

Consider `O=C(CO)N1CCc2ccc(Nc3ncc4c(n3)OCN(c3c(Cl)cccc3Cl)C4=O)cc2C1` [Example 1.7], for which the IC50 at WEE1 kinase enzyme came to 0.074 µM. As to `O=C(CO)N1CCN(c2ccc(Nc3ncc4c(n3)OCN(c3c(Cl)cccc3Cl)C4=O)cc2)CC1` [Example 1.8], the IC50 on WEE1 kinase enzyme was 0.162 µM. As for `O=C1c2cnc(Nc3ccc(N4CCNCC4)cc3)nc2OCN1c1ccccc1Cl` [Example 1.9], the IC50 at WEE1 kinase enzyme was 0.193 µM. As for `CN1CCN(c2ccc(Nc3ncc4c(n3)OCN(c3ccc(F)cc3Cl)C4=O)cc2)CC1` [Example 1.11], the IC50 on WEE1 kinase enzyme came to 0.837 µM. Turning to `O=C1c2cnc(Nc3ccc(N4CCNCC4CO)cc3)nc2OCN1c1c(Cl)cccc1Cl` (stereo not drawn) [Example 1.13], at WEE1 kinase enzyme, the IC50 came out at 0.144 µM. For `CC1(C)CNCc2cc(Nc3ncc4c(n3)OCN(c3ccc(F)cc3Cl)C4=O)ccc21` [Example 1.14], the IC50 on WEE1 kinase enzyme is 0.173 µM. For the compound `CCS(=O)(=O)N1CCN(c2ccc(Nc3ncc4c(n3)OCN(c3c(Cl)cccc3Cl)C4=O)cc2)CC1` [Example 1.15], the IC50 on WEE1 kinase enzyme was found to be 1.56 µM. On the same count and under the same terms, with `CC1Oc2nc(Nc3ccc(N4CCNCC4)cc3)ncc2C(=O)N1c1c(Cl)cccc1Cl` (stereo not drawn) [Example 1.17] the figure was 0.156 µM; with `CCN1CCN(c2ccc(Nc3ncc4c(n3)OCN(c3c(Cl)cccc3Cl)C4=O)cc2)CC1` [Example 1.18], 0.192 µM. For `CC(C)N1CCN(c2ccc(Nc3ncc4c(n3)OCN(c3c(Cl)cccc3Cl)C4=O)cc2)CC1` [Example 1.19], at WEE1 kinase enzyme, the IC50 is 0.206 µM. For `O=C1c2cnc(Nc3ccc(N4CCN(C5CC5)CC4)cc3)nc2OCN1c1c(Cl)cccc1Cl` [Example 1.21], the IC50 at WEE1 kinase enzyme came to 1.39 µM. On the same count and under the same terms, the value for `CCN1Cc2cc(Nc3ncc4c(n3)OCN(c3c(Cl)cccc3Cl)C4=O)ccc2C(C)(C)C1` [Example 1.22] was 0.03 µM; that for `O=C1NCCc2ccc(Nc3ncc4c(n3)OCN(c3c(Cl)cccc3Cl)C4=O)cc21` [Example 1.23] was 0.607 µM; that for `CN1CCN(c2ccc(Nc3ncc4c(n3)OCN(c3c(F)cccc3Cl)C4=O)cc2)CC1` [Example 1.25] was 0.068 µM.

As to `CC1CNCCN1c1ccc(Nc2ncc3c(n2)OCN(c2c(Cl)cccc2Cl)C3=O)cc1` (stereo not drawn) [Example 1.26], on WEE1 kinase enzyme, the IC50 was 0.088 µM.

As for `CC1(C)CNCc2cc(Nc3ncc4c(n3)OCN(c3c(F)cccc3Cl)C4=O)ccc21` [Example 1.28], on WEE1 kinase enzyme, the IC50 is 0.035 µM. On to `CN1CCN(c2ccc(Nc3ccc4c(n3)OCN(c3c(Cl)cccc3Cl)C4=O)cc2)CC1` [Example 1.31, 3-(2,6-dichlorophenyl)-7-(4-(4-methylpiperazin-1-yl)phenylamino)-2H-pyrido[3,2-e][1,3]oxazin-4(3H)-one], for which the IC50 on WEE1 kinase enzyme came out at 30 µM. Take `CC1CCN(c2ccc(Nc3ncc4c(n3)OCN(c3c(Cl)cccc3Cl)C4=O)cc2)CC1` [Example 1.59, 3-(2,6-dichlorophenyl)-7-(4-(4-methylpiperidin-1-yl)phenylamino)-2H-pyrimido[5,4-e][1,3]oxazin-4(3H)-one]: the results for the IC50 at WEE1 kinase enzyme and in the test on A427 cells were over 5 µM and 14 µM, respectively. Turning to `O=C1c2cnc(Nc3ccc(N4CCCNCC4)cc3)nc2OCN1c1c(Cl)cccc1Cl` [Example 1.61], the IC50 on WEE1 kinase enzyme amounted to 0.11 µM; with A427 cells, 4.12 µM. As to `CC1Oc2nc(Nc3ccc(N4CCNCC4)c(CO)c3)ncc2C(=O)N1c1c(Cl)cccc1Cl` (stereo not drawn) [Example 1.62], the IC50 at WEE1 kinase enzyme stood at 0.123 µM; in the test with A427 cells, 2.8 µM. Consider `O=C1c2cnc(Nc3ccc(N4CCC(F)(F)CC4)cc3)nc2OCN1c1c(Cl)cccc1Cl` [Example 1.63], for which, on WEE1 kinase enzyme, the IC50 is over 5 µM. Regarding `O=C1c2cnc(Nc3ccc4cnccc4c3)nc2OCN1c1c(Cl)cccc1Cl` [Example 1.64], on WEE1 kinase enzyme, the IC50 is over 5 µM. Take `O=C1c2cnc(Nc3ccc4c(c3)CN(CC(F)F)CC4)nc2OCN1c1c(Cl)cccc1Cl` [Example 1.65]: on WEE1 kinase enzyme, the IC50 came to 1.33 µM. As to `O=C1c2cnc(Nc3ccc4[nH]ncc4c3)nc2OCN1c1c(Cl)cccc1Cl` [Example 1.87], the IC50 on WEE1 kinase enzyme amounted to 0.777 µM; with A427 cells, 25.4 µM. Take `O=C1c2cnc(Nc3ccc(N4CCNC(CO)C4)cc3)nc2OCN1c1c(Cl)cccc1Cl` (stereo not drawn) [Example 1.96]: the IC50 at WEE1 kinase enzyme was 0.047 µM; in the test with A427 cells, 5.89 µM. As to `CN(c1ccc(N2CCNCC2)cc1)c1ncc2c(n1)OCN(c1c(Cl)cccc1Cl)C2=O` [Example 1.104], the IC50 is over 5 µM at WEE1 kinase enzyme and 27.8 µM with A427 cells.

`CN(C)Cc1c[nH]c2cc(Nc3ncc4c(n3)OCN(c3c(Cl)cccc3Cl)C4=O)ccc12` [Example 1.107]: the figures for the IC50 on WEE1 kinase enzyme and in the test on A427 cells were 0.11 µM and 7.7 µM, respectively.

In the case of `O=C1c2cnc(Nc3ccc4c(c3)NCCC4)nc2OCN1c1c(Cl)cccc1Cl` [Example 1.121], the figures for the IC50 on WEE1 kinase enzyme and in the test on A427 cells were 0.501 µM and 7.33 µM, respectively.

For the compound `C[C@H]1CNCCN1c1ccc(Nc2ncc3c(n2)OCN(c2c(Cl)cccc2Cl)C3=O)cc1` [Example 1.172], the IC50 on WEE1 kinase enzyme worked out at 0.066 µM; in the test on A427 cells, 4.9 µM. For the compound `C[C@@H]1CN(c2ccc(Nc3ncc4c(n3)OCN(c3c(Cl)cccc3Cl)C4=O)cc2)CCN1` [Example 1.173], the IC50 was 0.087 µM on WEE1 kinase enzyme and 3.32 µM in the test on A427 cells. Consider `C[C@@H]1CN(c2ccc(Nc3ncc4c(n3)OCN(c3c(Cl)cccc3Cl)C4=O)cc2F)CCN1` [Example 1.174], for which the results for the IC50 on WEE1 kinase enzyme and in the test on A427 cells were 0.032 µM and 3.4 µM, respectively. Regarding `O=C1c2cnc(Nc3ccc4[nH]ccc4c3)nc2OCN1c1c(Cl)cccc1Cl` [Example 1.175], the results for the IC50 on WEE1 kinase enzyme and in the test with A427 cells were 0.066 µM and 22 µM, respectively.

In the case of `Cc1cc(Nc2ncc3c(n2)OCN(c2c(Cl)cccc2Cl)C3=O)cc(C)c1N1CCNCC1` [Example 1.176], the IC50 at WEE1 kinase enzyme turned out to be 0.105 µM; in the test with A427 cells it was 3.25 µM. `CN(C)C1CCN(c2ccc(Nc3ncc4c(n3)OCN(c3c(Cl)cccc3Cl)C4=O)cc2)CC1` [Example 1.223]: the values for the IC50 at WEE1 kinase enzyme and in the test with A427 cells were 0.032 µM and 1.66 µM, respectively.

With `O=C1c2cnc(Nc3ccc4c(c3)CCCN4)nc2OCN1c1c(Cl)cccc1Cl` [Example 1.224], the IC50 at WEE1 kinase enzyme came to 0.232 µM; in the test on A427 cells, 12.1 µM. Consider `CCN(CC)CCOc1ccc(Nc2ncc3c(n2)OCN(c2c(Cl)cccc2Cl)C3=O)cc1` [Example 1.225], for which the IC50 at WEE1 kinase enzyme is 0.282 µM; in the test with A427 cells, 2.16 µM. `O=C1c2cnc(Nc3ccc4c(c3)NCCN4)nc2OCN1c1c(Cl)cccc1Cl` [Example 1.226]: the half-inhibitory concentration (IC50) at WEE1 kinase enzyme amounted to 0.188 µM; in the test on A427 cells, 5.36 µM. The matching figures for `CC1CN(c2ccc(Nc3ncc4c(n3)OCN(c3c(Cl)cccc3Cl)C4=O)cc2Cl)CCN1` (stereo not drawn) [Example 1.228]: 0.127 µM and 1.46 µM. For the compound `C[C@H]1CN(c2ccc(Nc3ncc4c(n3)OCN(c3c(Cl)cccc3Cl)C4=O)cc2Cl)CCN1` [Example 1.229], the half-inhibitory concentration (IC50) at WEE1 kinase enzyme was 0.185 µM; in the test with A427 cells it was 2.25 µM. The matching figures for `CN1CCN(c2ccc(Nc3ncc4c(n3)SCN(c3c(Cl)cccc3Cl)C4=O)cc2)CC1` [Example 1.230]: 0.561 µM and 4.94 µM. For the compound `C[C@@H]1CN(c2ccc(Nc3ncc4c(n3)OCN(c3c(Cl)cccc3Cl)C4=O)cc2Cl)CCN1` [Example 1.919], the IC50 on WEE1 kinase enzyme was 0.34 µM.
